Results: ChEMBL document CHEMBL1821669, “Cyclic depsipeptides, grassypeptolides D and E and Ibu-epidemethoxylyngbyastatin 3, from a Red Sea Leptolyngbya cyanobacterium” (J Nat Prod, 2011)
Numbered stars: 1 amine (or outer) side, 2 acyl side, 3 side chain; on linkers, the order of the positions; unused ones are H or OH. Square brackets hold non-standard residues; d marks the D form. Peptide text beside a SMILES is read from it. X2 = CCC[C@@H](N[*:1])[C@H](C)C(=O)O[C@H](C(=O)[*:2])[C@@H](C)CC; X3 = CC[C@H](C)[C@H](OC(=O)[C@@H](C)[C@@H](CC)N[*:1])C(=O)[*:2]; dAbuψ(thiazoline)Cys = CC[C@@H](N[*:1])C1=N[C@H](C(=O)[*:2])CS1; X4 = CN([C@@H](Cc1ccccc1)C1=N[C@H](C(=O)[*:2])CS1)[*:1]; dβ3hAla(2R-Me) = C[C@@H](N[*:1])[C@@H](C)C(=O)[*:2]; X1 = C[C@H](N[*:1])C(=O)C(C)(C)C(=O)[*:2]; d(aThr) = C[C@@H](O)[C@@H](N)C(=O)O; NMeF = CN[C@@H](Cc1ccccc1)C(=O)O; PhLac = O=C(O)[C@@H](O)Cc1ccccc1; NMeL = CN[C@@H](CC(C)C)C(=O)O; dNMeL = CN[C@H](CC(C)C)C(=O)O; NMeV = CN[C@H](C(=O)O)C(C)C; NMeA = CN[C@@H](C)C(=O)O

Columns and labels:
[1] = Cytotoxicity against mouse Neuro2a cells after 48 hrs by MTT assay; format: functional, cell-based; details: N2a
HeLa = experiment: Cytotoxicity against human HeLa cells after 48 hrs by MTT assay; format: functional, cell-based

| SMILES | IC50 [1] | IC50 (HeLa) |
| --- | --- | --- |
| CCC[C@H]1NC(=O)[C@H](C)N(C)C(=O)C(C)(C)C(=O)[C@H](C)NC(=O)[C@H](Cc2ccccc2)N(C)C(=O)[C@H](C(C)C)N(C)C(=O)CNC(=O)[C@H](CC(C)C)N(C)C(=O)CNC(=O)[C@H]([C@@H](C)CC)OC(=O)[C@H]1C (cyclo(G[NMeL]G[NMeV][NMeF][X1][NMeA][X2])) | > 10000 nM | – |
| CC[C@H](C)[C@@H]1OC(=O)[C@@H](C)[C@@H](CC)NC(=O)[C@H](C)N(C)C(=O)C(C)(C)C(=O)[C@H](C)NC(=O)[C@H](Cc2ccccc2)N(C)C(=O)[C@H](C(C)C)N(C)C(=O)CNC(=O)[C@H](CC(C)C)N(C)C(=O)CNC1=O [DOLASTATIN 12] (cyclo(G[NMeL]G[NMeV][NMeF][X1][NMeA][X3])) | > 1000 nM | – |
| CC[C@H]1NC(=O)[C@@H]2CSC(=N2)[C@H](Cc2ccccc2)N(C)C(=O)[C@@H]2CCCN2C(=O)[C@H](C(C)C)N(C)C(=O)[C@H](Cc2ccccc2)OC(=O)[C@H](C)[C@@H](C)NC(=O)[C@@H]([C@@H](C)O)NC(=O)[C@@H](CC(C)C)N(C)C(=O)[C@@H]2CSC1=N2 [GRASSYPEPTOLIDE C] (cyclo([NMeV]P[X4][dAbuψ(thiazoline)Cys][dNMeL][d(aThr)][dβ3hAla(2R-Me)][PhLac])) | – | 45 nM |
| CC[C@H]1NC(=O)[C@@]2(C)CSC(=N2)[C@H](Cc2ccccc2)N(C)C(=O)[C@@H]2CCCN2C(=O)[C@H](C(C)C)N(C)C(=O)[C@H](Cc2ccccc2)OC(=O)[C@H](C)[C@@H](C)NC(=O)[C@@H]([C@@H](C)O)NC(=O)[C@@H](CC(C)C)N(C)C(=O)[C@@H]2CSC1=N2 [GRASSYPEPTOLIDE D] | 599 nM | 335 nM |
| CC[C@H]1NC(=O)[C@@]2(C)CSC(=N2)[C@H](Cc2ccccc2)N(C)C(=O)[C@@H]2CCCN2C(=O)[C@H](C(C)C)N(C)C(=O)[C@H](Cc2ccccc2)OC(=O)[C@H](C)[C@@H](C)NC(=O)[C@H]([C@@H](C)O)NC(=O)[C@H](CC(C)C)N(C)C(=O)[C@@H]2CSC1=N2 [GRASSYPEPTOLIDE E] | 407 nM | 192 nM |
